What was measured:
Type in all cases: cell-based
[1] = system: Bacteria (aerobic spore-formers); test: Germ content determination (Ph. Eur. 6.8, Chapter 2.6.12) of aqueous walnut shell meal slurry: bacteria
Method: (§1) Test Equipment: • A BF 720 incubator is used. • A spiral plater is used as a plating device, with which a predefined volume of the suspension to be checked for germs is applied to the culture medium. For example, an Eddy-Jet 2W spiral plater is used.
(§2) The germ count takes place in the screening by the Envirocheck® system for confirmation according to the Ph Eur.6.8. Chapter 2.6.12.
(§3) Subculturing: • The subculturing is carried out by a spiral plater using a corresponding program, depending on the requirements (for example, in one program, higher germ quantities may be more easily broken down by the gradient of the applied product or, in another program, a greater amount may be applied, which drops the lower determination limit). • One (in the case of double samples, two) fungus culture medium and one bacteria culture medium each are taken for each sample. • Standard total germ count checks are performed with no double determination.
(§4) Neutralization: • A neutralization, if it is to be carried out, takes place using 50% NaOH.
(§5) Incubation: • Bacteria: 2-3 days at 30+/−2° C. in the corresponding incubators; • Yeast/fungus: 3-5 days at room temperature away from light.
(§6) . This amount was maintained at pH 2.9 in the subsequent tests. Following a predefined time span T in minutes, one sample each was collected and incubated for 48 hours in an incubator in order to subsequently determine its germ load. The time span T thus corresponds to the contact time of the disinfectant, in the present case only citric acid.
(§7) The germ count after incubation takes place using the Environcheck® test sticks immediately or in an outside laboratory. For the external check, the product is cooled and stored for at least 1 day at 8° C. and transferred in a polystyrene box.
(§8) The germ content determination is based on the Ph. Eur.6.8—germ content, Chapter 2.6.12
(§9) […]. The sample was then again adjusted to pH 7 using sodium hydroxide solution and incubated in the incubator for 48 hours. The germs in the individual samples were subsequently counted again using the Envirocheck® system internally or using an outside institute by a previously cooled stored product for 1 day.
(§10) . The germ count determination is based on the Ph. Eur. 6.8—Germ content, Chapter 2.6.12

Yeasts = test: Germ content determination (Ph. Eur. 6.8, Chapter 2.6.12) of aqueous walnut shell meal slurry: yeasts
Method: as §1, §2, §3, §4, §5, §6, §7, §8, §9, §10

Fungi = test: Germ content determination (Ph. Eur. 6.8, Chapter 2.6.12) of aqueous walnut shell meal slurry: fungi
Method: as §1, §2, §3, §4, §5, §6, §7, §8, §9, §10

[2] = system: total germ count of walnut shell meal slurry; test: Germ content determination (Ph. Eur. 6.8, Chapter 2.6.12) of aqueous walnut shell meal slurry: total germ count
Method: as §1, §2, §4, §5
Following a predefined time span T in minutes, one sample each was collected and incubated for 48 hours in an incubator in order to subsequently determine its germ load.
as §7, §8
The subsequent incubation of the sample took place over 48 hours.
The sample was then again adjusted to pH 7 using sodium hydroxide solution and incubated in the incubator for 48 hours. The germs in the individual samples were subsequently counted again using the Envirocheck® system internally or using an outside institute by a previously cooled stored product for 1 day.
The germ count determination is based on the Ph. Eur. 6.8—Germ content, Chapter 2.6.12

[3] = pH 2.9, contact time 15 minutes
[4] = pH 2.9, contact time 30 minutes
[5] = pH 2.9, contact time 45 minutes
[6] = pH 2.9, contact time 60 minutes

| Structure (SMILES) | Bacteria [1, 3] | Bacteria [1, 4] | Bacteria [1, 5] | Bacteria [1, 6] | Yeasts (Yeasts; [3]) | Yeasts (Yeasts; [4]) | Yeasts (Yeasts; [5]) | Yeasts (Yeasts; [6]) | Fungi (Fungi; [3]) | Fungi (Fungi; [4]) | Fungi (Fungi; [5]) | Fungi (Fungi; [6]) | TGC (total germ count) [2, 3] | TGC (total germ count) [2, 4] | TGC (total germ count) [2, 5] | contact time after which germ load reduction clearly identifiable ([2]; pH 2.9) [min] |
| --- | --- | --- | --- | --- | --- | --- | --- | --- | --- | --- | --- | --- | --- | --- | --- | --- |
| O=C(O)CC(O)(CC(=O)O)C(=O)O [citric acid] | 60 CFU/g or mL | 100 CFU/g or mL | 200 CFU/g or mL | 170 CFU/g or mL | 140 CFU/g or mL | 140 CFU/g or mL | — (<7 CFU/g or mL) | 35 CFU/g or mL | 50 CFU/g or mL | 55 CFU/g or mL | 35 CFU/g or mL | 20 CFU/g or mL | 250 CFU/g or mL | 295 CFU/g or mL | 235 CFU/g or mL | – |
| CC(O)C(=O)O (stereo not shown) [lactic acid] | – | – | – | – | – | – | – | – | – | – | – | – | – | – | – | 5 |

Source: US20240041037A1, “DISINFECTANT AND USE THEREOF” (priority 2021, published 2024)
